Experimental data from patent US8653127B2, “Bicyclic pyrazolo-heterocycles” (Cara Therapeutics, Inc., priority 2009, dated 2014).
Like-named read-outs stand apart in the source and are kept apart here.

Experiments:
[1] = target: human CB1 receptor (hCB1) (Homo sapiens, UniProt P21554); experiment: cAMP assay, agonist/inverse agonist activity at human CB1 receptor; type: cell-based; details: hCB1R, read-out: EC50 at hCB1R (Potency at Human CB1 determined by cAMP Assay)
Method: The ability of each of the compounds to act as agonists or inverse agonists at human CB2 and CB 1 receptors (hCB2, hCB 1, respectively) and at the rat CB2 receptor (rCB2) was determined by measuring changes in intracellular cyclic AMP (cAMP) levels as described in U.S. Pat. No. 7,517,874.
TR-FRET was measured using a 330-380 nm excitation filter, 615 nm and 665 nm emission filters, dichroic mirror 380 nm and Z=10 mm. cAMP concentrations in each well were back-calculated from a cAMP standard curve run concurrently during each assay. Each plate contained 16 wells of forskolin stimulated cells and 16 wells of forskolin plus 1 μM CP55,940-treated cells. Concentrations of cAMP were expressed as a percent of the difference of these two groups of wells. Concentration-response data including EC50 (the concentration of compound producing 50% of the maximal response) and intrinsic activity (the percent maximal activation compared to full activation by CP55,940) were determined using a four-parameter non-linear regression algorithm (CambridgeSoft Bioassay).

[2] = target: human CB2 receptor (hCB2) (Homo sapiens, UniProt P34972); experiment: cAMP assay, agonist/inverse agonist activity at human CB2 receptor; type: cell-based
human CB2 receptor (hCB2), sequence (P34972 whole entry): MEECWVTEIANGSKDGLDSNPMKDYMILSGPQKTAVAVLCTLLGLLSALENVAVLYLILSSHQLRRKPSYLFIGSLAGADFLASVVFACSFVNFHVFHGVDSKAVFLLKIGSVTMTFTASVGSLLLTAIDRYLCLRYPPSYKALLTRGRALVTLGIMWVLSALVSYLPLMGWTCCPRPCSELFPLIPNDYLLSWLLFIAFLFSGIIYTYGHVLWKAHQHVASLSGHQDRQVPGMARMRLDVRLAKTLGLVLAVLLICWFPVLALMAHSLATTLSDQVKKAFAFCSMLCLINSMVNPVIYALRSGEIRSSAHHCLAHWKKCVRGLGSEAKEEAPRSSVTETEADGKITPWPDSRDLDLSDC
Method: TR-FRET was measured using a 330-380 nm excitation filter, 615 nm and 665 nm emission filters, dichroic mirror 380 nm and Z=10 mm. cAMP concentrations in each well were back-calculated from a cAMP standard curve run concurrently during each assay. Each plate contained 16 wells of forskolin stimulated cells and 16 wells of forskolin plus 1 μM CP55,940-treated cells. Concentrations of cAMP were expressed as a percent of the difference of these two groups of wells.

rat L5/L6 SNL model = experiment: Spinal nerve ligation (SNL) model of neuropathic pain, mechanical allodynia; type: in vivo; details: two-way repeated measurement ANOVA, FIG. 1
Method: The SNL model (Kim and Chung, 1992, Pain 50(3):355-63) was used to induce chronic neuropathic pain in rats. Rats were anesthetized with isoflurane, the left L5 transverse process was removed, and the L5 and L6 spinal nerves were tightly ligated with 6-0 silk suture. The wound was then closed with internal sutures and external staples. Following at least seven days post SNL, baseline, post-injury and post-treatment values for non-noxious mechanical sensitivity were evaluated using eight Semmes-Weinstein filaments (Stoelting, Wood Dale, Ill., USA) with varying stiffness (0.4, 0.7, 1.2, 2.0, 3.6, 5.5, 8.5, and 15 g) according to the up-down method (Chaplan et al., 1994, J. Neurosci. Meth., 53(1):55-63). Animals were placed on a perforated metallic platform and allowed to acclimate to their surroundings for a minimum of 30 mins before testing.
Rat L5/L6 SNL model (n=6/group; mean±sem). Sensitivity to non-noxious mechanical stimuli was tested before and at various time points following oral administration of compound (36). The mean and standard error of the mean (SEM) were determined for the injured paw in each treatment group. Since this stimulus is normally not considered painful, significant injury-induced increases in responsiveness in this test are interpreted as a measure of mechanical allodynia.

[3] = hCB2R, cAMP assay, read-out: EC50 at hCB2R (Potency at Human CB2 determined by cAMP Assay)

human CB1 receptor (hCB1), sequence (P21554 whole entry): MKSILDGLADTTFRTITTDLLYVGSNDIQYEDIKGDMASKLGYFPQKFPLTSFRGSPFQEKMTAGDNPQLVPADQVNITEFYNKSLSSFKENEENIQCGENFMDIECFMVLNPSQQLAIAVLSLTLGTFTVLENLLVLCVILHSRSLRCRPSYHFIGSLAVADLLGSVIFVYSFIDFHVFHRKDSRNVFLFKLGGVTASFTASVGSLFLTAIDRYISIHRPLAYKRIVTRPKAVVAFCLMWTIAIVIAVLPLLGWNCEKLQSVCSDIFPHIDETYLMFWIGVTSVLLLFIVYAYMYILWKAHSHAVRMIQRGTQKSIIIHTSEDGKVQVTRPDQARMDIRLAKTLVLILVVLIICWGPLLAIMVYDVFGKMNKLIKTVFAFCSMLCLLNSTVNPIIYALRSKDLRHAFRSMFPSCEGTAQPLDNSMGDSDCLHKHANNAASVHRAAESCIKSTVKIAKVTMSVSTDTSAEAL

Row | Compound | EC50 [1] [nM] | EC50 [2] [nM] | further results
1 | Cc1nnc(CNC(=O)[C@@H](NC(=O)n2nc(-c3ccc(F)c(F)c3)c3c2CCOC3)C(C)(C)C)o1 [Compound 113, (S)-3-(3,4-difluorophenyl)-N-(3,3-dimethyl-1-((5-methyl-1,3,4-oxadiazol-2-yl)methylamino)-1-oxobutan-2-yl)-6,7-dihydropyrano[4,3-c]pyrazole-1(4H)-carboxamide] | < 1000 | < 1000 | 
2 | CC(C)(C)[C@H](NC(=O)c1nn(-c2ccc(Cl)cc2F)c2c1COCC2)C(=O)NCCO [Compound 117, (S)-1-(4-chloro-2-fluorophenyl)-N-(1-(2-hydroxyethylamino)-3,3-dimethyl-1-oxobutan-2-yl)-1,4,6,7-tetrahydropyrano[4,3-c]pyrazole-3-carboxamide] | < 1000 | < 1000 | 
3 | Cc1cc(NC(=O)[C@@H](NC(=O)n2nc(-c3ccc(F)c(F)c3)c3c2CCOC3)C(C)(C)C)n[nH]1 [Compound 105, (S)-3-(3,4-difluorophenyl)-N-(3,3-dimethyl-1-(5-methyl-1H-pyrazol-3-ylamino)-1-oxobutan-2-yl)-6,7-dihydropyrano[4,3-c]pyrazole-1(4H)-carboxamide] | < 1000 | < 1000 | 
4 | CC(C)(C)[C@H](NC(=O)n1nc(-c2ccc(F)c(F)c2)c2c1CCOC2)C(=O)N1CCN(c2ncccn2)CC1 [Compound 107, (S)-3-(3,4-difluorophenyl)-N-(3,3-dimethyl-1-oxo-1-(4-(pyrimidin-2-yl)piperazin-1-yl)butan-2-yl)-6,7-dihydropyrano[4,3-c]pyrazole-1(4H)-carboxamide] | < 1000 |  | EC50 [2, 3]: < 1000 nM
5 | CC(C)(C)[C@H](NC(=O)n1nc(-c2ccc(F)c(F)c2)c2c1CCOC2)C(=O)N1CCS(=O)(=O)CC1 [Compound 110, (S)-3-(3,4-difluorophenyl)-N-(3,3-dimethyl-1-oxo-1-thiomorpholinodioxide-butan-2-yl)-6,7-dihydropyrano[4,3-c]pyrazole-1(4H)-carboxamide] | < 1000 |  | EC50 [2, 3]: > 1000 nM
6 | CC(C)(C)[C@H](NC(=O)n1nc(-c2ccc(F)c(F)c2)c2c1CCOC2)C(=O)N1CCNC(=O)C1 [Compound 111, (S)-3-(3,4-difluorophenyl)-N-(3,3-dimethyl-1-oxo-1-(3-oxopiperazin-1-yl)butan-2-yl)-6,7-dihydropyrano[4,3-c]pyrazole-1(4H)-carboxamide] | < 1000 | < 1000 | 
7 | Cc1nnc(CNC(=O)[C@@H](NC(=O)c2nn(-c3cc(Cl)ccc3F)c3c2COCC3)C(C)(C)C)o1 [Compound 123] | < 1000 |  | hCBR2 activity ([2]; cAMP assay): no detectable hCBR2 activity
8 | Cc1cnc(CNC(=O)[C@@H](NC(=O)n2nc(-c3ccc(F)c(F)c3)c3c2CCOC3)C(C)(C)C)cn1 [Compound 106, (S)-3-(3,4-difluorophenyl)-N-(3,3-dimethyl-1-((5-methylpyrazin-2-yl)methylamino)-1-oxobutan-2-yl)-6,7-dihydropyrano-[4,3-c]pyrazole-1(4H)-carboxamide] | < 1000 |  | EC50 [2, 3]: < 1000 nM
9 | CN(C)S(=O)(=O)N1CCN(C(=O)[C@@H](NC(=O)n2nc(-c3ccc(F)c(F)c3)c3c2CCOC3)C(C)(C)C)CC1 [Compound 112, (S)-3-(3,4-difluorophenyl)-N-(1-(4-(N,N-dimethylsulfamoyl)piperazin-1-yl)-3,3-dimethyl-1-oxobutan-2-yl)-6,7-dihydropyrano-[4,3-c]pyrazole-1(4H)-carboxamide] | < 1000 |  | EC50 [2, 3]: > 1000 nM
10 | CC(C)(C)[C@H](NC(=O)c1nn(-c2ccc(Cl)cc2F)c2c1CCOC2)C(=O)NCCO [Compound 118, (S)-1-(4-chloro-2-fluorophenyl)-N-(1-(2-hydroxyethylamino)-3,3-dimethyl-1-oxobutan-2-yl)-1,4,5,7-tetrahydropyrano[3,4-c]pyrazole-3-carboxamide] | < 1000 | < 1000 | 
11 | CC(C)(C)[C@H](NC(=O)n1nc(-c2ccc(F)c(F)c2)c2c1CCOC2)C(=O)NCCO [Compound 36, (S)-N-(1-(2-hydroxyethylamino)-3,3-dimethyl-1-oxobutan-2-yl)-3-(3,4-difluorophenyl)-6,7-dihydropyrano[4,3-c]pyrazole-1(4H)-carboxamide] |  |  | sensitivity to non-noxious mechanical stimuli, significance vs. vehicle-controls (rat L5/L6 SNL model; 3 mg/kg oral): significant to p<0.05 vs. vehicle-controls; sensitivity to non-noxious mechanical stimuli, significance vs. vehicle-controls (rat L5/L6 SNL model; 10 mg/kg oral): significant to p<0.001 vs. vehicle-controls; sensitivity to non-noxious mechanical stimuli, significance vs. vehicle-controls (rat L5/L6 SNL model; 30 mg/kg oral): significant to p<0.001 vs. vehicle-controls
12 | CC(C)(C)C(NC(=O)c1nn(-c2cc(Cl)ccc2F)c2c1COCC2)C(=O)N1CCC[C@H]1CO (stereo partly drawn) [Compound 122] | < 1000 | < 1000 | 
13 | CC(C)(C)[C@H](NC(=O)c1nn(-c2cc(Cl)ccc2F)c2c1COCC2)C(=O)N1CCNC(=O)C1 [Compound 121, (S)-1-(5-chloro-2-fluorophenyl)-N-(3,3-dimethyl-1-oxo-1-(3-oxopiperazin-1-yl)butan-2-yl)-1,4,6,7-tetrahydropyrano[4,3-c]pyrazole-3-carboxamide] | < 1000 |  | hCBR2 activity ([2]; cAMP assay): no detectable hCBR2 activity
14 | CC(C)(C)[C@H](NC(=O)n1nc(-c2ccc(F)c(F)c2)c2c1CCOC2)C(=O)N1CCN(c2nccs2)CC1 [Compound 108, (S)-3-(3,4-difluorophenyl)-N-(3,3-dimethyl-1-oxo-1-(4-(thiazol-2-yl)piperazin-1-yl)butan-2-yl)-6,7-dihydropyrano[4,3-c]pyrazole-1(4H)-carboxamide] | < 1000 | < 1000 | 
15 | CC(C)(C)[C@H](NC(=O)c1nn(-c2cc(Cl)ccc2F)c2c1COCC2)C(=O)NCCO [Compound 119, (S)-1-(5-chloro-2-fluorophenyl)-N-(1-(2-hydroxyethylamino)-3,3-dimethyl-1-oxobutan-2-yl)-1,4,6,7-tetrahydropyrano[4,3-c]pyrazole-3-carboxamide] | < 1000 | < 1000 | 
16 | CC(C)(C)[C@H](NC(=O)n1nc(-c2ccc(F)c(F)c2)c2c1CCOC2)C(=O)NCCC#N [Compound 104, (S)-N-(1-(2-cyanoethylamino)-3,3-dimethyl-1-oxobutan-2-yl)-3-(3,4-difluorophenyl)-6,7-dihydropyrano[4,3-c]pyrazole-1(4H)-carboxamide] | < 1000 | < 1000 | 
17 | CNC(=O)[C@@H](NC(=O)c1nn(-c2ccc(F)c(F)c2)c2c1CN(C)CCC2)C(C)(C)C [Compound 120, (S)-1-(3,4-difluorophenyl)-N-(3,3-dimethyl-1-(methylamino)-1-oxobutan-2-yl)-5-methyl-1,4,5,6,7,8-hexahydropyrazolo[4,3-c]azepine-3-carboxamide] | < 1000 | < 1000 | 
18 | CC(C)(C)[C@H](NC(=O)n1nc(-c2ccc(F)c(F)c2)c2c1CCOC2)C(=O)N1CCC[C@H]1CO [Compound 109, 3-(3,4-difluorophenyl)-N-((S)-1-((S)-2-(hydroxymethyl)pyrrolidin-1-yl)-3,3-dimethyl-1-oxobutan-2-yl)-6,7-dihydropyrano[4,3-c]pyrazole-1(4H)-carboxamide] | < 1000 | < 1000 | 
19 | CNC(=O)[C@@H](NC(=O)n1nc(-c2cc(C(F)(F)F)ccc2F)c2c1CCN(C)C2)C(C)(C)C [Compound 59, (S)-N-(3,3-dimethyl-1-(methylamino)-1-oxobutan-2-yl)-3-(2-fluoro-5-(trifluoromethyl)phenyl)-5-methyl-4,5,6,7-tetrahydro-1H-pyrazolo[4,3-c]pyridine-1-carboxamide] | < 1000 | < 1000 | 
